Values quoted from earlier work as cited in patent US20230165871A1, “COMBINATION THERAPIES FOR INHIBITION OF POLO-LIKE KINASE 4” (UNIVERSITY HEALTH NETWORK, priority 2020, published 2023).

Key:
[1] = tested on: cancer cell lines; details: via induction of apoptosis and cell cycle arrest with induction of aneuploidy
[2] = tested on: cell line and patient-derived xenografts of breast and ovarian cancer; details: tolerable doses
[3] = clinical
[4] = in vivo

oral bioavailability [4]: orally bioavailable
Structure (SMILES): COc1ccc2c(c1)[C@]1(C[C@H]1c1ccc3c(/C=C/c4ccc(CN5C[C@@H](C)O[C@@H](C)C5)cc4)n[nH]c3c1)C(=O)N2 [Compound (I)]
anti-proliferative effects in cancer cell lines [1]: potent anti-proliferative effects
anti-tumour effects in xenograft models [2]: potent anti-tumour effects at tolerable doses
major toxic effects which limit dose [3]: neutropenia, thrombocytopenia, fever, diarrhea and increased liver function tests
